Data: patent US12655107B2 (The United States of America, as represented by the …, priority 2018, dated 2026)
Values joined by “and” are separate entries in the source; they are usually repeats but may differ in a detail not shown here. Equal values may be shown once.

Assays:
Top1 = target: T1, Top1 (Homo sapiens, UniProt P11387); test: Top1-mediated DNA cleavage assay; assay type: biochemical; settings: for Top1 cleavage: inhibition relative to 1 μM CPT, Table 6
T1 sequence (P11387 1-765): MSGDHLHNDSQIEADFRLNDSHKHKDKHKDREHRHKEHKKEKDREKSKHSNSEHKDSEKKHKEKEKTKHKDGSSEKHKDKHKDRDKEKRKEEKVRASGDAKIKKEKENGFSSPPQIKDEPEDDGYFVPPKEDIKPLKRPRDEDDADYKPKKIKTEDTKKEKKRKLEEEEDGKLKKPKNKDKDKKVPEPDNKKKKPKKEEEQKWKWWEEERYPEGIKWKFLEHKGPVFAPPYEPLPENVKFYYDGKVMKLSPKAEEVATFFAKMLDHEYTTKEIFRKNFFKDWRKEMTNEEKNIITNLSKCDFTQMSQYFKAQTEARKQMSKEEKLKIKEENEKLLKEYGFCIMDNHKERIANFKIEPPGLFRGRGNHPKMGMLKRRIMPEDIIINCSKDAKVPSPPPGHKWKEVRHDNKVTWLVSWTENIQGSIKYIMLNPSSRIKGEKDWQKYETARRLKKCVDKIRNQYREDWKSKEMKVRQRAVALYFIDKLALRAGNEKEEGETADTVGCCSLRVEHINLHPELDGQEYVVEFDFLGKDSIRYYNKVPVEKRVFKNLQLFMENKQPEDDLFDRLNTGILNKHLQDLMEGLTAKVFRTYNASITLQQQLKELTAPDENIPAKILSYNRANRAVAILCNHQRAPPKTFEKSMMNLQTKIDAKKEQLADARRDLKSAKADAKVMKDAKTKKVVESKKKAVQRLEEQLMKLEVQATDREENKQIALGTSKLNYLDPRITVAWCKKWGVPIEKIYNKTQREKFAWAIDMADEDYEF

Tdp1 = Tdp1 (Homo sapiens, UniProt Q9NUW8); test: Tdp1 inhibition gel-based assay; settings: IC50 Tdp1 (μM), Table 6; replicate values listed in one cell
Chain of Tdp1 (Q9NUW8 whole entry): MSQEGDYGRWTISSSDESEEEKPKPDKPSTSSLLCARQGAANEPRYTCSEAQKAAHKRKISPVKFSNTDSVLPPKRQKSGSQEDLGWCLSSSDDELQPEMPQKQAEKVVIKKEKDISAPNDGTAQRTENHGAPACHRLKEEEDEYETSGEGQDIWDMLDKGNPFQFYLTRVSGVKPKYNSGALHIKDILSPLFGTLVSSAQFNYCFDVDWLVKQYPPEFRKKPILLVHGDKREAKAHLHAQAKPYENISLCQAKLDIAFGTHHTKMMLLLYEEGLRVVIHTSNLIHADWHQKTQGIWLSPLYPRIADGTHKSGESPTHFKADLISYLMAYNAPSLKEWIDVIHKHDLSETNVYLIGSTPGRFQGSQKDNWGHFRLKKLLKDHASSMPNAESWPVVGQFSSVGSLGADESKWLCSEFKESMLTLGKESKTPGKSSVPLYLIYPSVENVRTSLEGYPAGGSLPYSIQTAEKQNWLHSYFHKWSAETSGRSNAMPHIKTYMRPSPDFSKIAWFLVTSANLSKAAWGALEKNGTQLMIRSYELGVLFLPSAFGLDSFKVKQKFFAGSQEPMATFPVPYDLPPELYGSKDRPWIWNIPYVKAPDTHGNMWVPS
Description: The indenoisoquinoline 10 was used as the positive control.
Gel-based assay. […] Gels were dried and exposed to a PhosphorImager screen (GE Healthcare). Gel images were scanned using a Typhoon FLA 9500 scanner (GE Healthcare), and densitometry analyses were performed using the ImageQuant software (GE Healthcare).

IC50 (Tdp1)	Top1 cleavage (Top1)	Compound	TOP1 inhibition (Top1; graded relative to CPT at 1 μM, Table 7)
–	–	COc1cc2c(=O)n(CCN(C)P3(=O)OCCO3)c3c4cc5c(cc4ccc3c2cc1OC)OCO5 [Compound 57, 2,3-dimethoxy-12-(2-(methyl(2-oxido-1,3,2-dioxaphospholan-2-yl)amino)ethyl)-[1,3]dioxolo[4′,5′:4,5]benzo[1,2-c]phenanthridin-13(12H)-one]	++ (++, between 50% and 75% activity)
64.2 ± 23.9 µM	–	COc1cc2c[n+](CCN(C)C)c3c4cc5c(cc4ccc3c2cc1OC)OCO5 [NTD-191]	–
> 111 µM	–	CCN(CC)CC[n+]1cc2cc(OC)c(OC)cc2c2ccc3cc4c(cc3c21)OCO4 [NTD-195]	–
> 111 µM	++ (++ is 50-75%)	COc1cc2c(OCCCN3CCN(C(C)=O)CC3)nc3c4cc5c(cc4ccc3c2cc1OC)OCO5 [NTD-205]	–
> 111 µM	+ (+ is 20-50%)	CCN1CCN(CCCOc2nc3c4cc5c(cc4ccc3c3cc(OC)c(OC)cc23)OCO5)CC1 [NTD-207]	–
> 111 µM	+ (+ is 20-50%)	COc1cc2c(OCCCOC(=O)c3ccccc3)nc3c4cc5c(cc4ccc3c2cc1OC)OCO5 [NTD-208]	–
> 111 µM	+ (+ is 20-50%)	COc1cc2c(OCCCOC(=O)c3ccc(Br)cc3)nc3c4cc5c(cc4ccc3c2cc1OC)OCO5 [NTD-209]	–
> 111 µM	+ (+ is 20-50%)	COc1cc2c(OCCCOC(=O)c3ccc(Cl)cc3)nc3c4cc5c(cc4ccc3c2cc1OC)OCO5 [NTD-210]	–
20.6 ± 4.46 µM	0 (0 is inactive)	COc1cc2c(OCCCN3CCC3)nc3c4cc5c(cc4ccc3c2cc1OC)OCO5 [NTD-225]	–
38 µM	0 (0 is inactive)	COc1cc2c(NCCCN(C)C)nc3c4cc5c(cc4ccc3c2cc1OC)OCO5 [NTD-301]	–
> 111 µM	+ (+ is 20-50%)	CCN(CC)CCNc1nc2c3cc4c(cc3ccc2c2cc(OC)c(OC)cc12)OCO4 [NTD-305]	–
56.2 µM	–	COc1cc2c(NCCN3CCCC3)nc3c4cc5c(cc4ccc3c2cc1OC)OCO5 [NTD-307]	–
> 111 µM	+ (n = 2) (+ is 20-50%)	COc1cc2c(NCCN3CCOCC3)nc3c4cc5c(cc4ccc3c2cc1OC)OCO5 [NTD-309]	–
> 111 µM	–	COc1cc2c(NCCN3CCNCC3)nc3c4cc5c(cc4ccc3c2cc1OC)OCO5 [NTD-311]	–
> 111 µM	+ (+ is 20-50%)	COc1cc2c(NCCCN3CCN(C)CC3)nc3c4cc5c(cc4ccc3c2cc1OC)OCO5 [NTD-312]	–
> 111 µM	+ (n = 2) (+ is 20-50%)	COc1cc2c(NCCN3CCCCC3)nc3c4cc5c(cc4ccc3c2cc1OC)OCO5 [NTD-313]	–
> 111 µM	+ (+ is 20-50%)	COc1cc2c(NCCCn3ccnc3)nc3c4cc5c(cc4ccc3c2cc1OC)OCO5 [NTD-314]	–
72 µM and 107 µM	0 (0 is inactive)	COc1cc2c(NCCN)nc3c4cc5c(cc4ccc3c2cc1OC)OCO5 [NTD-325]	–
> 111 µM	–	COc1cc2c(N(C)C)nc3c4cc5c(cc4ccc3c2cc1OC)OCO5 [NTD-329]	–
> 111 µM	–	C=CCOc1nc2c3cc4c(cc3ccc2c2cc(OC)c(OC)cc12)OCO4 [NTD-332]	–
> 111 µM	–	CCOC(=O)COc1nc2c3cc4c(cc3ccc2c2cc(OC)c(OC)cc12)OCO4 [NTD-334]	–
–	+ (+ is 20-50%)	CCC(CO)Nc1nc2c3cc4c(cc3ccc2c2cc(OC)c(OC)cc12)OCO4 (centres unmarked) [NTD-363]	–
> 111 µM	++ (n = 2) (++ is 50-75%)	COc1cc2c(SCCN(C)C)nc3c4cc5c(cc4ccc3c2cc1OC)OCO5 [NTD-403]	–
> 111 µM	++ (++ is 50-75%)	CCN(CC)CCSc1nc2c3cc4c(cc3ccc2c2cc(OC)c(OC)cc12)OCO4 [NTD-404]	–
75.9 µM and > 111 µM (2×) and 64.6 µM	+ (+ is 20-50%)	CN(C)CCn1c(=O)c2ccccc2c2ccc3ccccc3c21 [TWL-5]	–
> 111 µM	+ (+ is 20-50%)	COc1ccc2c(ccc3c4ccccc4c(=O)n(CCN(C)C)c23)c1 [TWL-9]	–

IC50 (Tdp1)	Top1 cleavage (Top1)	Compound	TOP1 inhibition (Top1; graded relative to CPT at 1 μM, Table 7)
> 111 µM	+ (+ is 20-50%)	COc1ccc2c(=O)n(CCN(C)C)c3c4ccccc4ccc3c2c1 [TWL-17]	–
> 111 µM (2×) and 74.1 µM and 75.9 µM	+ (+ is 20-50%)	CN(C)CCn1c(=O)c2cc(O)ccc2c2ccc3ccccc3c21 [TWL-25A]	–
49.4 ± 1.4 µM	+ (+ is 20-50%)	COc1ccc2c(c1)c(=O)n(CCN(C)C)c1c3ccccc3ccc21 [TWL-25]	–
> 111 µM	+ (+ is 20-50%)	COc1cccc2c1ccc1c3ccccc3c(=O)n(CCN(C)C)c21 [TWL-26]	–
> 111 µM	+ (+ is 20-50%)	COc1ccc2ccc3c4ccccc4c(=O)n(CCN(C)C)c3c2c1 [TWL-33]	–
27.6 ± 19 µM	+ (+ is 20-50%)	CN(C)CCn1c(=O)c2cc3c(cc2c2ccc4cc5c(cc4c21)OCO5)OCO3 [TWL-37]	–
18.2 ± 1.15 µM	+ (+ is 20-50%)	CN(C)CCn1c(=O)c2cc3c(cc2c2ccc4ccccc4c21)OCO3 [TWL-40]	–
> 111 µM	+ (+ is 20-50%)	COc1cc2c(=O)n(CCN(C)C)c3c4ccccc4ccc3c2cc1OC [TWL-44]	–
> 111 µM	–	COc1cc2ccc3c4cc(OC)c(OC)cc4c(=O)n(CCN(C)C)c3c2cc1OC [TWL-48]	–
> 111 µM	–	CN(C)CCn1c(=O)c2ccccc2c2ccc3cc(Br)ccc3c21 [TWL-53]	–
> 111 µM	+ (+ is 20-50%)	CN(C)CCn1c(=O)c2ccccc2c2ccc3cc4c(cc3c21)OCO4 [TWL-67]	–
> 111 µM	–	COc1cc2ccc3c4ccccc4c(=O)n(CCN(C)C)c3c2cc1OC [TWL-76H]	–
67.6 µM	–	COc1cc2ccc3c4cc5c(cc4c(=O)n(CCN(C)C)c3c2cc1OC)OCO5 [TWL-107]	–
> 111 µM (2×) and 65 µM	+ (+ is 20-50%)	COc1cc2c(cc1O)c(=O)n(CCN(C)C)c1c3cc4c(cc3ccc21)OCO4 [TWL-113]	–
> 111 µM	+ (+ is 20-50%)	COc1cc2c(=O)n(CCN(C)C)c3c4cc5c(cc4ccc3c2cc1O)OCO5 [TWL-119]	–
65 µM and 50 µM	+ (+ is 20-50%)	COc1cc2c(ccc3c4cc(OC)c(OC)cc4c(=O)n(CCN(C)C)c23)cc1O [TWL-125]	–
> 111 µM	–	COc1cc2ccc3c4cc(OC)c(OC)cc4c(=O)n(CCN(C)C)c3c2cc1O [TWL-131]	–
> 111 µM	++ (++ is 50-75%)	COc1cc2c(=O)n(CCN(C)C)c3c4cc(O)c(O)cc4ccc3c2cc1OC [TWL-164]	–
> 111 µM	+ (+ is 20-50%)	CN(C)CCn1c(=O)c2cc(O)c(O)cc2c2ccc3cc4c(cc3c21)OCO4 [TWL-170]	–
> 111 µM	+ (+ is 20-50%)	CN(C)CCn1c(=O)c2c3c(ccc2c2ccc4ccccc4c21)OCO3 [TWL-185]	–
> 111 µM	+ (+ is 20-50%)	COc1cc2ccc3c4ccc5c(c4c(=O)n(CCN(C)C)c3c2cc1OC)OCO5 [TWL-189]	–
> 111 µM	–	CN(C)CCn1c(=O)c2c3c(ccc2c2ccc4cc5c(cc4c21)OCO5)OCO3 [TWL-191]	–
11 µM and 30 µM and 72 µM	+ (+ is 20-50%)	COc1ccc2c(c1O)c(=O)n(CCN(C)C)c1c3cc4c(cc3ccc21)OCO4 [TWL-211]	–
–	+++ (+++ is 75-95%)	CN(C)CCn1c(=O)c2c(O)c(O)ccc2c2ccc3cc4c(cc3c21)OCO4 [TWL-218A]	–
–	++ (++ is 50-75%)	COc1cc2c(=O)n(CCN(C)C)c3c4cc5c(cc4c(OC)cc3c2cc1OC)OCO5 [TWL-246]	–

Compound	IC50 (Tdp1)	Top1 cleavage (Top1)	TOP1 inhibition (Top1; graded relative to CPT at 1 μM, Table 7)
COc1cc2c[n+](CCCn3ccnc3)c3c4cc5c(cc4ccc3c2cc1OC)OCO5 [NTD-192]	81.3 ± 14.5 µM	–	–
